Laboratory results: patent US12162872B2, “Cycloalkylurea derivative” (Sumitomo Pharma Co., Ltd., priority 2019, dated 2024)

target: T1, Human orexin receptor type 2 (Homo sapiens, UniProt O43614); assay: Test 2: Evaluation of agonist activity for orexin receptor type 2 (aequorin luminescence, intracellular calcium mobilization in CHO cells); type: cell-based; conditions: relative percentage of luminescence for the luminescence (100%) of Orexin A (100 pM); CHO cells transiently expressing human orexin receptor type 2 and apoaequorin; Orexin A Lot. 671009
T1 construct: expressed in transfected cells; host or cells: CHO cells (transient expression)
T1 sequence (O43614 1-444): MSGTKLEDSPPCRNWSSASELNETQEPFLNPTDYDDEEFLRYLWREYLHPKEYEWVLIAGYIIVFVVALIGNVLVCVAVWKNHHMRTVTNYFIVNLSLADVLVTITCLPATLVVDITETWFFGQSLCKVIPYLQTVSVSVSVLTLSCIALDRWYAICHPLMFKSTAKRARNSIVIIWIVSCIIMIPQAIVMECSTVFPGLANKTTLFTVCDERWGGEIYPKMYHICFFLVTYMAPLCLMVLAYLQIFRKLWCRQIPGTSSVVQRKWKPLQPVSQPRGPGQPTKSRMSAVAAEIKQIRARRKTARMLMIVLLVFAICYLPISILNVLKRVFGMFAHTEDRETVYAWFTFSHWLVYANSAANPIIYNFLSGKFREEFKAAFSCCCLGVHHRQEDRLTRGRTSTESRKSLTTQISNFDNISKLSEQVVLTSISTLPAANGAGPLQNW
Procedure: Test 2: Evaluation of Agonist Activity for Orexin Receptor Type 2
Human orexin receptor type 2 and apoaequorin were transiently expressed in CHO cells, and the agonist activity was evaluated based on intracellular calcium mobilization with ligand stimulation. The CHO cells transiently-expressed human orexin receptor type 2 and apoaequorin were seeded on a 384-well plate by 2,000 cells/well, and then incubated for 16-22 hours. After the plate was returned to room temperature, Coelenterazine hcp (final concentration: 1 μM) was added to the plate, and the plate was allowed to stand at room temperature for 2 hours. And then, Orexin A (PEPTIDE INSTITUTE, INC., Lot. 671009) or each test compound was added to the plate, and the luminescence of the cells was measured with FDSS7000 (Hamamatsu Photonics K.K.), wherein Orexin A and each test compound were dissolved in DMSO (final concentration: 0.1%), and diluted with a buffer (Hanks, 20 mM HEPES, 0.1% BSA). The agonist activity of each test compound for orexin receptor type 2 was calculated as relative percentage of luminescence for the luminescence (100%) of Orexin A (100 pM).

| SMILES | agonist activity (%) |
| --- | --- |
| CC(C)N1CCN([C@H]2CCC[C@@H](F)[C@@H]2NC(=O)N2CCC(C)(c3noc(C4CC4)n3)CC2)CC1 (racemic) [Example 139, rac-4-(5-cyclopropyl-1,2,4-oxadiazol-3-yl)-N-{(1R,2R,6S)-2-fluoro-6-[4-(propan-2-yl)piperazin-1-yl]cyclohexyl}-4-methylpiperidine-1-carboxamide] | 351 |
| CC(C)N1CCN([C@H]2CCCCC[C@@H]2NC(=O)N2CCC(C)(c3noc(C4CC4)n3)CC2)CC1 (racemic) [Example 151, rac-4-(5-cyclopropyl-1,2,4-oxadiazol-3-yl)-4-methyl-N-{(1S,2S)-2-[4-(propan-2-yl)piperazin-1-yl]cycloheptyl}piperidine-1-carboxamide] | 368 |
| CC(C)N1CCC(O[C@H]2CCCC(F)(F)[C@@H]2NC(=O)N2CCC(C)(c3noc(C4CC4)n3)CC2)CC1 [Example 84, 4-(5-cyclopropyl-1,2,4-oxadiazol-3-yl)-N-[(1R,6S)-2,2-difluoro-6-{[1-(propan-2-yl)piperidin-4-yl]oxy}cyclohexyl]-4-methylpiperidine-1-carboxamide] | 372 |
| CC(C)c1nc([C@H]2CCCC(F)(F)[C@@H]2NC(=O)N2CCC(C)(c3noc(C4CC4)n3)CC2)no1 [Example 85, 4-(5-cyclopropyl-1,2,4-oxadiazol-3-yl)-N-{(1R,6S)-2,2-difluoro-6-[5-(propan-2-yl)-1,2,4-oxadiazol-3-yl]cyclohexyl}-4-methylpiperidine-1-carboxamide] | 360 |
| CC(C)c1nc([C@H]2CCCC(F)(F)[C@@H]2NC(=O)N2CCC(C)(c3noc([C@@H]4C[C@@H]4F)n3)CC2)no1 [Example 86, N-{(1R,6S)-2,2-difluoro-6-[5-(propan-2-yl)-1,2,4-oxadiazol-3-yl]cyclohexyl}-4-{5-[(1S,2S)-2-fluorocyclopropyl]-1,2,4-oxadiazol-3-yl}-4-methylpiperidine-1-carboxamide] | 367 |
| CC(C)N1CC[C@H](N(Cc2ccccc2)[C@H]2CCCC(F)(F)[C@@H]2NC(=O)N2CCC(C)(c3noc([C@@H]4C[C@@H]4F)n3)CC2)C1 [Example 91, N-[(1R,6S)-6-{benzyl[(3S)-1-(propan-2-yl)pyrrolidin-3-yl]amino}-2,2-difluorocyclohexyl]-4-{5-[(1S,2S)-2-fluorocyclopropyl]-1,2,4-oxadiazol-3-yl}-4-methylpiperidine-1-carboxamide] | 243 |
| CC(C)N1CC[C@H](N(C)[C@H]2CCCC(F)(F)[C@@H]2NC(=O)N2CCC(C)(c3noc([C@@H]4C[C@@H]4F)n3)CC2)C1 [Example 95, N-[(1R,6S)-2,2-difluoro-6-{methyl[(3S)-1-(propan-2-yl)pyrrolidin-3-yl]amino}cyclohexyl]-4-{5-[(1S,2S)-2-fluorocyclopropyl]-1,2,4-oxadiazol-3-yl}-4-methylpiperidine-1-carboxamide] | 447 |
| CC(C)N(C)[C@H]1CCN([C@H]2CCCC(F)(F)[C@@H]2NC(=O)N2CCC(C)(c3noc([C@@H]4C[C@@H]4F)n3)CC2)C1 [Example 96, N-[(1R,6S)-2,2-difluoro-6-{(3S)-3-[methyl(propan-2-yl)amino]pyrrolidin-1-yl}cyclohexyl]-4-{5-[(1S,2S)-2-fluorocyclopropyl]-1,2,4-oxadiazol-3-yl}-4-methylpiperidine-1-carboxamide] | 493 |
| CC(C)N1CCN([C@H]2CCCC(F)(F)[C@@H]2NC(=O)N2CCC(C)(c3noc(C4CCC4)n3)CC2)CC1 [Example 97, 4-(5-cyclobutyl-1,2,4-oxadiazol-3-yl)-N-{(1R,6S)-2,2-difluoro-6-[4-(propan-2-yl)piperazin-1-yl]cyclohexyl}-4-methylpiperidine-1-carboxamide] | 486 |
| CC(C)N1[C@@H]2CC[C@H]1C[C@H](O[C@H]1CCCC(F)(F)[C@@H]1NC(=O)N1CCC(C)(c3noc([C@@H]4C[C@@H]4F)n3)CC1)C2 [Example 98, N-[(1R,6S)-2,2-difluoro-6-{[(1R,3S,5S)-8-(propan-2-yl)-8-azabicyclo[3.2.1]octan-3-yl]oxy}cyclohexyl]-4-{5-[(1S,2S)-2-fluorocyclopropyl]-1,2,4-oxadiazol-3-yl}-4-methylpiperidine-1-carboxamide] | 271 |
| CC(C)N(C)[C@H]1CCN([C@H]2CCCC(F)(F)[C@@H]2NC(=O)N2CCC(C)(c3noc(C4CC4)n3)CC2)C1 [Example 99, 4-(5-cyclopropyl-1,2,4-oxadiazol-3-yl)-N-[(1R,6S)-2,2-difluoro-6-{(3S)-3-[methyl(propan-2-yl)amino]pyrrolidin-1-yl}cyclohexyl]-4-methylpiperidine-1-carboxamide] | 499 |

Results, then the compound that gave them:

| agonist activity (%) | SMILES |
| --- | --- |
| 69 | CC(C)N1CCN([C@@H]2CCCC(F)(F)[C@H]2NC(=O)N2CCC(C)(c3noc([C@H]4C[C@H]4F)n3)CC2)CC1 [Example 82, N-{(1S,6R)-2,2-difluoro-6-[4-(propan-2-yl)piperazin-1-yl]cyclohexyl}-4-{5-[(1R,2R)-2-fluorocyclopropyl]-1,2,4-oxadiazol-3-yl}-4-methylpiperidine-1-carboxamide] |
| 371 | CC(C)N1CCC(O[C@H]2CCCC(F)(F)[C@@H]2NC(=O)N2CCC(C)(c3noc([C@@H]4C[C@@H]4F)n3)CC2)CC1 [Example 83, N-[(1R,6S)-2,2-difluoro-6-{[1-(propan-2-yl)piperidin-4-yl]oxy}cyclohexyl]-4-{5-[(1S,2S)-2-fluorocyclopropyl]-1,2,4-oxadiazol-3-yl}-4-methylpiperidine-1-carboxamide] |
| 226 | CC(C)c1nsc(O[C@H]2CCCC(F)(F)[C@@H]2NC(=O)N2CCC(C)(c3noc([C@@H]4C[C@@H]4F)n3)CC2)n1 [Example 87, N-[(1R,6S)-2,2-difluoro-6-{[3-(propan-2-yl)-1,2,4-thiadiazol-5-yl]oxy}cyclohexyl]-4-{5-[(1S,2S)-2-fluorocyclopropyl]-1,2,4-oxadiazol-3-yl}-4-methylpiperidine-1-carboxamide] |
| 201 | CC(C)n1cc(O[C@H]2CCCC(F)(F)[C@@H]2NC(=O)N2CCC(C)(c3noc([C@@H]4C[C@@H]4F)n3)CC2)cn1 [Example 88, N-[(1R,6S)-2,2-difluoro-6-{[1-(propan-2-yl)-1H-pyrazol-4-yl]oxy}cyclohexyl]-4-{5-[(1S,2S)-2-fluorocyclopropyl]-1,2,4-oxadiazol-3-yl}-4-methylpiperidine-1-carboxamide] |
| 0 | CC(C)N1CC(O[C@H]2CCCC(F)(F)[C@@H]2NC(=O)N2CCC(C)(c3noc([C@@H]4C[C@@H]4F)n3)CC2)C1 [Example 89, N-[(1R,6S)-2,2-difluoro-6-{[1-(propan-2-yl)azetidin-3-yl]oxy}cyclohexyl]-4-{5-[(1S,2S)-2-fluorocyclopropyl]-1,2,4-oxadiazol-3-yl}-4-methylpiperidine-1-carboxamide] |
| 112 | CC(C)n1cc(O[C@H]2CCCC(F)(F)[C@@H]2NC(=O)N2CCC(C)(c3noc(C4CC4)n3)CC2)cn1 [Example 90, 4-(5-cyclopropyl-1,2,4-oxadiazol-3-yl)-N-[(1R,6S)-2,2-difluoro-6-{[1-(propan-2-yl)-1H-pyrazol-4-yl]oxy}cyclohexyl]-4-methylpiperidine-1-carboxamide] |
| 16 | CC(C)c1nccc(O[C@H]2CCCC(F)(F)[C@@H]2NC(=O)N2CCC(C)(c3noc([C@@H]4C[C@@H]4F)n3)CC2)n1 [Example 92, N-[(1R,6S)-2,2-difluoro-6-{[2-(propan-2-yl)pyrimidin-4-yl]oxy}cyclohexyl]-4-{5-[(1S,2S)-2-fluorocyclopropyl]-1,2,4-oxadiazol-3-yl}-4-methylpiperidine-1-carboxamide] |
| 365 | CC(C)c1cn([C@H]2CCCC(F)(F)[C@@H]2NC(=O)N2CCC(C)(c3noc([C@@H]4C[C@@H]4F)n3)CC2)nn1 [Example 93, N-{(1R,6S)-2,2-difluoro-6-[4-(propan-2-yl)-1H-1,2,3-triazol-1-yl]cyclohexyl}-4-{5-[(1S,2S)-2-fluorocyclopropyl]-1,2,4-oxadiazol-3-yl}-4-methylpiperidine-1-carboxamide] |
| 382 | CC(C)Cc1cn([C@H]2CCCC(F)(F)[C@@H]2NC(=O)N2CCC(C)(c3noc([C@@H]4C[C@@H]4F)n3)CC2)nn1 [Example 94, N-{(1R,6S)-2,2-difluoro-6-[4-(2-methylpropyl)-1H-1,2,3-triazol-1-yl]cyclohexyl}-4-{5-[(1S,2S)-2-fluorocyclopropyl]-1,2,4-oxadiazol-3-yl}-4-methylpiperidine-1-carboxamide] |
